Experiments:
[1] = test system: Trichomonas vaginalis Ito; assay: Antitrichomonas activity test using mice; type: in vivo, Trichomonas vaginalis Ito in SLC-ICR strain male mice
Source text: Test Compounds: SF-1540-A' (substance SF-1540 treated with methanol). Control--Flagyl (MNZ, available from Shionogi Seiyaku K.K., Japan)=Metronidazol--1'-(2'-Hydroxyethyl)-2'-methyl-5'-nitroimidazole [drawing 1]
1. Test protozoa strain: Trichomonas vaginalis Ito
2. Host animals: SLC-ICR strain male mice of average body weight of 20 g. and 5-week age, each group consisting of 5 animals.
3. Inoculation of protozoa: Protozoa were inoculated to Bacto-Kupferberg Trichomonas base (Difco; 20% calf serum added), cultivation was conducted at 37° C. for 24 hours, propagated protozoa were collected and centrifuged at 1500 r.p.m. for 5 minutes and then washed twice with centrifugation in sterilized Locke-Ringer's solution. The supernatant was discarded and the residue was diluted with sterilized Ringer's solution so as to have a protozoal number of 500×10^4 ml. Each 0.2 ml. portion (the protozoal number of 100×10^4) was inoculated to mice at subcutaneous sites of the back thereof wherein fur was previously removed.
4. Preparation of test samples: Each test compound was asceptically weighed, finely-divided in a sterilized mortar and then suspended in a 1% CMC solution to form suspensions of given concentrations.
5. Dose and administration: The SF-1540-A' was used at 3 dose levels: 50 mg./kg. (1 mg./0.2 ml./mouse/day), 25 mg./kg. (0.5 mg./0.2 ml./mouse/day) and 12.5 mg./kg. (0.25 mg./0.2 ml./mouse/day), while Flagyl as control was used at 2 dose levels: 25 mg./kg. (0.5 mg./0.2 ml./mouse/day) and 12.5 mg./kg. (0.25 mg./0.2 ml./mouse/day). After 24 hours from protozoa inoculation, the SF-1540-A' was given subcutaneously and Flagyl orally once a day for 6 days (Total, 6 times). As control, each 0.2 ml. portion of a 1% CMC solution was subcutaneously administered.
Formation of an abscess at a subcutaneous site of the back of a host animal was visually detectable for its protuberance after 48 hours from the protozoa inoculation.
Size of abscess was measured when sacrificed and cultivated to confirm effectiveness of the test compound after 24 hours from the 6 administrations.

[2] = test system: rice blast pathogenic fungus (Pyricularia oryzae); type: in vivo; details: 5 ppm

| Structure (SMILES) | difference from 1% CMC group (Tukey) ([1]; 12.5 mg./kg. orally) | difference from 1% CMC group (Tukey) ([1]; 25 mg./kg. orally) | abscess, visual observation ([1]; 25 mg./kg. orally once a day, after 3 administrations) | abscess at sacrifice, 24 hours after 6 administrations ([1]; mouse, in vivo, po) | bulge upon sacrifice ([1]; mouse, in vivo, po) | Preventive & curative value [2] [%] | Average number of diseased spots per leaf ([2]; after 5 days) |
| --- | --- | --- | --- | --- | --- | --- | --- |
| Cc1ncc([N+](=O)[O-])n1CCO [Flagyl, 1'-(2'-Hydroxyethyl)-2'-methyl-5'-nitroimidazole] | significant at the 5% level of significance | significant at the 1% level of significance | a remarkable reduction in abscess | abscess disappeared | only a slight bulge | – | – |
| CN(CCC(N)CC(=O)NC1C=CC(n2ccc(N)nc2=O)OC1C(=O)O)C(=N)N (stereo not shown) [Blasticidin S] | – | – | – | – | – | 85 | 3.6 |
